Measurements reported in ChEMBL document CHEMBL3885881, “DrugMatrix”.

Species on record: Rattus norvegicus
Experiment: DrugMatrix - Regimen: Daily Repeat
Type: toxicity, organism-based, Sprague-Dawley
Design: regimen Daily Repeat, gender Male, age 6-8 weeks
Details: in vivo, po, route oral GAVAGE, […]; for TOTAL PROTEIN / URIC ACID / ALANINE AMINOTRANSFERASE / ALBUMIN / ALKALINE PHOSPHATASE / ASPARTATE AMINOTRANSFERASE / BLOOD UREA NITROGEN / CARBON DIOXIDE / CHOLESTEROL / CREATINE PHOSPHOKINASE / CREATININE / GLUCOSE / LACTATE DEHYDROGENASE / LIPASE / TOTAL BILIRUBIN: tissue Plasma; for ABSOLUTE BASOPHIL / ABSOLUTE EOSINOPHIL / ABSOLUTE LYMPHOCYTE / ABSOLUTE MONOCYTE / ABSOLUTE SEGMENTED NEUTROPHIL / BASOPHIL / EOSINOPHIL / ERYTHROCYTE COUNT / HEMATOCRIT / HEMOGLOBIN / LEUKOCYTE COUNT / LYMPHOCYTE / MEAN CORPUSCULAR HEMOGLOBIN / MEAN CORPUSCULAR HEMOGLOBIN CONCENTRATION / MEAN CORPUSCULAR VOLUME / MONOCYTE / NEUTROPHIL / NUCLEATED RED BLOOD CELLS / PLATELET COUNT: tissue Blood
[1] = 32 mg/kg, 120 h, dose level M2, time 5 day
[2] = 64 mg/kg, 72 h, dose level High, time 3 day
[3] = 64 mg/kg, 120 h, dose level High, time 5 day
[4] = 72 h, dose 2.5 mg/Kg, dose level Low, time 3 day
[5] = 120 h, dose 2.5 mg/Kg, dose level Low, time 5 day

CC/C(=C(\c1ccccc1)c1ccc(OCCN(C)C)cc1)c1ccccc1 [TAMOXIFEN]
TOTAL PROTEIN [1]: 6.4 G/DL | URIC ACID [1]: 2.17 mg/dL | ABSOLUTE BASOPHIL [2]: 0 CELLS/uL | ABSOLUTE EOSINOPHIL [2]: 0 CELLS/uL | ABSOLUTE LYMPHOCYTE [2]: 5492.33 CELLS/uL | ABSOLUTE MONOCYTE [2]: 14 CELLS/uL | ABSOLUTE SEGMENTED NEUTROPHIL [2]: 260.33 CELLS/uL | BASOPHIL [2]: 0% | EOSINOPHIL [2]: 0% | ERYTHROCYTE COUNT [2]: 5.73 x10E6/uL | HEMATOCRIT [2]: 35.43% | HEMOGLOBIN [2]: 13.57 G/DL | LEUKOCYTE COUNT [2]: 5.77 x10E3/uL | LYMPHOCYTE [2]: 94.67% | MEAN CORPUSCULAR HEMOGLOBIN [2]: 23.73 pg | MEAN CORPUSCULAR HEMOGLOBIN CONCENTRATION [2]: 38.3 G/DL | MEAN CORPUSCULAR VOLUME [2]: 62.03 fL | MONOCYTE [2]: 0.33% | NEUTROPHIL [2]: 5% | NUCLEATED RED BLOOD CELLS [2]: 0 /100WBC | PLATELET COUNT [2]: 879.67 x10E3/uL | ALANINE AMINOTRANSFERASE [2]: 151 u/L | ALBUMIN [2]: 3.87 G/DL | ALKALINE PHOSPHATASE [2]: 492 u/L | ASPARTATE AMINOTRANSFERASE [2]: 96.67 u/L | BLOOD UREA NITROGEN [2]: 10 mg/dL | CARBON DIOXIDE [2]: 30.33 mmol/L | CHOLESTEROL [2]: 38.33 mg/dL | CREATINE PHOSPHOKINASE [2]: 356.33 u/L | CREATININE [2]: 0.11 mg/dL | GLUCOSE [2]: 148 mg/dL | LACTATE DEHYDROGENASE [2]: 98 u/L | LIPASE [2]: 10.67 u/L | TOTAL BILIRUBIN [2]: 0.1 mg/dL | TOTAL PROTEIN [2]: 5.77 G/DL | URIC ACID [2]: 0.43 mg/dL | ABSOLUTE BASOPHIL [3]: 0 CELLS/uL | ABSOLUTE EOSINOPHIL [3]: 0 CELLS/uL | ABSOLUTE LYMPHOCYTE [3]: 6999 CELLS/uL | ABSOLUTE MONOCYTE [3]: 72.33 CELLS/uL | ABSOLUTE SEGMENTED NEUTROPHIL [3]: 495.33 CELLS/uL | BASOPHIL [3]: 0% | EOSINOPHIL [3]: 0% | ERYTHROCYTE COUNT [3]: 6.14 x10E6/uL | HEMATOCRIT [3]: 38.5% | HEMOGLOBIN [3]: 14.9 G/DL | LEUKOCYTE COUNT [3]: 7.57 x10E3/uL | LYMPHOCYTE [3]: 92.33% | MEAN CORPUSCULAR HEMOGLOBIN [3]: 24.27 pg | MEAN CORPUSCULAR HEMOGLOBIN CONCENTRATION [3]: 38.7 G/DL | MEAN CORPUSCULAR VOLUME [3]: 62.63 fL | MONOCYTE [3]: 1% | NEUTROPHIL [3]: 6.67% | NUCLEATED RED BLOOD CELLS [3]: 0.33 /100WBC | PLATELET COUNT [3]: 1000.33 x10E3/uL | ALANINE AMINOTRANSFERASE [3]: 226.33 u/L | ALBUMIN [3]: 3.63 G/DL | ALKALINE PHOSPHATASE [3]: 346.67 u/L | ASPARTATE AMINOTRANSFERASE [3]: 140 u/L | BLOOD UREA NITROGEN [3]: 7.67 mg/dL | CARBON DIOXIDE [3]: 30 mmol/L | CHOLESTEROL [3]: 43.33 mg/dL | CREATINE PHOSPHOKINASE [3]: 593 u/L | CREATININE [3]: 0.12 mg/dL | GLUCOSE [3]: 136.33 mg/dL | LACTATE DEHYDROGENASE [3]: 145.33 u/L | LIPASE [3]: 10.33 u/L | TOTAL BILIRUBIN [3]: 0.1 mg/dL | TOTAL PROTEIN [3]: 5.3 G/DL | URIC ACID [3]: 0.67 mg/dL | ABSOLUTE BASOPHIL [4]: 0 CELLS/uL | ABSOLUTE EOSINOPHIL [4]: 0 CELLS/uL | ABSOLUTE LYMPHOCYTE [4]: 5987.33 CELLS/uL | ABSOLUTE MONOCYTE [4]: 0 CELLS/uL | ABSOLUTE SEGMENTED NEUTROPHIL [4]: 346 CELLS/uL | BASOPHIL [4]: 0% | EOSINOPHIL [4]: 0% | ERYTHROCYTE COUNT [4]: 5.38 x10E6/uL | HEMATOCRIT [4]: 32.47% | HEMOGLOBIN [4]: 12.63 G/DL | LEUKOCYTE COUNT [4]: 6.33 x10E3/uL | LYMPHOCYTE [4]: 94.33% | MEAN CORPUSCULAR HEMOGLOBIN [4]: 23.5 pg | MEAN CORPUSCULAR HEMOGLOBIN CONCENTRATION [4]: 38.9 G/DL | MEAN CORPUSCULAR VOLUME [4]: 60.4 fL | MONOCYTE [4]: 0% | NEUTROPHIL [4]: 5.67% | NUCLEATED RED BLOOD CELLS [4]: 0 /100WBC | PLATELET COUNT [4]: 919.67 x10E3/uL | ALANINE AMINOTRANSFERASE [4]: 63.33 u/L | ALBUMIN [4]: 3.8 G/DL | ALKALINE PHOSPHATASE [4]: 412.33 u/L | ASPARTATE AMINOTRANSFERASE [4]: 76.33 u/L | BLOOD UREA NITROGEN [4]: 11 mg/dL | CARBON DIOXIDE [4]: 34 mmol/L | CHOLESTEROL [4]: 44.33 mg/dL | CREATINE PHOSPHOKINASE [4]: 193 u/L | CREATININE [4]: 0.1 mg/dL | GLUCOSE [4]: 160.67 mg/dL | LACTATE DEHYDROGENASE [4]: 89 u/L | LIPASE [4]: 10 u/L | TOTAL BILIRUBIN [4]: 0.13 mg/dL | TOTAL PROTEIN [4]: 5.67 G/DL | URIC ACID [4]: 0.57 mg/dL | ABSOLUTE BASOPHIL [5]: 0 CELLS/uL | ABSOLUTE EOSINOPHIL [5]: 0 CELLS/uL | ABSOLUTE LYMPHOCYTE [5]: 7101.67 CELLS/uL | ABSOLUTE MONOCYTE [5]: 21.33 CELLS/uL | ABSOLUTE SEGMENTED NEUTROPHIL [5]: 443.67 CELLS/uL | BASOPHIL [5]: 0% | EOSINOPHIL [5]: 0% | ERYTHROCYTE COUNT [5]: 5.73 x10E6/uL | HEMATOCRIT [5]: 35.9% | HEMOGLOBIN [5]: 14 G/DL | LEUKOCYTE COUNT [5]: 7.57 x10E3/uL | LYMPHOCYTE [5]: 93.67% | MEAN CORPUSCULAR HEMOGLOBIN [5]: 24.43 pg | MEAN CORPUSCULAR HEMOGLOBIN CONCENTRATION [5]: 39.07 G/DL | MEAN CORPUSCULAR VOLUME [5]: 62.63 fL | MONOCYTE [5]: 0.33% | NEUTROPHIL [5]: 6% | NUCLEATED RED BLOOD CELLS [5]: 0.33 /100WBC | PLATELET COUNT [5]: 1179.33 x10E3/uL | ALANINE AMINOTRANSFERASE [5]: 95 u/L | ALBUMIN [5]: 4.13 G/DL | ALKALINE PHOSPHATASE [5]: 534.33 u/L | ASPARTATE AMINOTRANSFERASE [5]: 94.33 u/L | BLOOD UREA NITROGEN [5]: 11.33 mg/dL | CARBON DIOXIDE [5]: 31 mmol/L | CHOLESTEROL [5]: 43 mg/dL | CREATINE PHOSPHOKINASE [5]: 303.67 u/L | CREATININE [5]: 0.1 mg/dL | GLUCOSE [5]: 148.33 mg/dL | LACTATE DEHYDROGENASE [5]: 142.67 u/L | LIPASE [5]: 10.67 u/L | TOTAL BILIRUBIN [5]: 0.1 mg/dL | TOTAL PROTEIN [5]: 6 G/DL | URIC ACID [5]: 0.73 mg/dL
